Measured values taken from ChEMBL document CHEMBL5579817, “Recent advances in targeting histone H3 lysine 36 methyltransferases for cancer therapy” (Eur J Med Chem, 2024).

How the values were obtained:
[1] = target: T1, Histone-lysine N-methyltransferase NSD2 (Homo sapiens, UniProt O96028); experiment: Binding affinity to NSD2 (unknown origin) assessed as dissociation constant by SPR analysis
T1 sequence (O96028 whole entry): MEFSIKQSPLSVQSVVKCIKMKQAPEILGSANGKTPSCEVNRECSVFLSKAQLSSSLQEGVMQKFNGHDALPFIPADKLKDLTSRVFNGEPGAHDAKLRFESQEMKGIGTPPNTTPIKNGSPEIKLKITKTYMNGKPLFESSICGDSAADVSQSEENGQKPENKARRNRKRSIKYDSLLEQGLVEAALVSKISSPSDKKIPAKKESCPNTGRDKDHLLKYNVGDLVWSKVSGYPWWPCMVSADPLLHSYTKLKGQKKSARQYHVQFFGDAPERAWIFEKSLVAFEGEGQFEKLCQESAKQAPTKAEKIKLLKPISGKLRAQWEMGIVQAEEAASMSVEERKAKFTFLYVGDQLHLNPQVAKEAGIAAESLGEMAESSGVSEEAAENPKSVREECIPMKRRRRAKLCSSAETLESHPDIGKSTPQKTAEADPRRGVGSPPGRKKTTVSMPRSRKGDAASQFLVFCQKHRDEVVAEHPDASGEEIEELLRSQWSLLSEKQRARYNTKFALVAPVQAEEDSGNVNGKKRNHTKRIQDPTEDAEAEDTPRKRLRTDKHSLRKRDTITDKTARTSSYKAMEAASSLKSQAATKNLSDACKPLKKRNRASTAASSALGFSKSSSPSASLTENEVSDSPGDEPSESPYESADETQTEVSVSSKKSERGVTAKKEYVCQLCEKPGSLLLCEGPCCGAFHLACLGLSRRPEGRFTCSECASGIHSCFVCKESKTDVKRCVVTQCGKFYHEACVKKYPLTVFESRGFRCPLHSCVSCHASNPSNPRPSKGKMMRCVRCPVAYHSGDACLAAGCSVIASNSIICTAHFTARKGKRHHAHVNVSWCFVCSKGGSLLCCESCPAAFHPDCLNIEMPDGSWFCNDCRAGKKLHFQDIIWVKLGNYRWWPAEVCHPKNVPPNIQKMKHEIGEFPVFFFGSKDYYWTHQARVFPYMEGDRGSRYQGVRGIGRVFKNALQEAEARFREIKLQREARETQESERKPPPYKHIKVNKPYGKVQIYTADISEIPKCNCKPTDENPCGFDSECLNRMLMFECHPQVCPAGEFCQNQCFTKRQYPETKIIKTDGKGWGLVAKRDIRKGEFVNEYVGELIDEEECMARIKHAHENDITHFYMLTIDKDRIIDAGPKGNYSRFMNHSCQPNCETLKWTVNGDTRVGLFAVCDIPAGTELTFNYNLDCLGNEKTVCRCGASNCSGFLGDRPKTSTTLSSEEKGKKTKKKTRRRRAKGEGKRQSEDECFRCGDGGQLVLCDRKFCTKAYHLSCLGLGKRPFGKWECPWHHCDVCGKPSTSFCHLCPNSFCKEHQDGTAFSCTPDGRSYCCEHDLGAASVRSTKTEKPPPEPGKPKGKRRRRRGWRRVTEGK

[2] = target: Protein cereblon/Histone-lysine N-methyltransferase NSD2 (Homo sapiens, UniProt O96028+Q96SW2); experiment: PROTAC activity at CRBN/NSD2 in human VCaP cells assessed as induction of NSD2 degradation at 2 uM incubated for 24 hrs by immunoblot analysis; type: cell-based
Chain of Protein cereblon/Histone-lysine N-methyltransferase NSD2 (Q96SW2 whole entry, one chain of several, the tested form may be a part): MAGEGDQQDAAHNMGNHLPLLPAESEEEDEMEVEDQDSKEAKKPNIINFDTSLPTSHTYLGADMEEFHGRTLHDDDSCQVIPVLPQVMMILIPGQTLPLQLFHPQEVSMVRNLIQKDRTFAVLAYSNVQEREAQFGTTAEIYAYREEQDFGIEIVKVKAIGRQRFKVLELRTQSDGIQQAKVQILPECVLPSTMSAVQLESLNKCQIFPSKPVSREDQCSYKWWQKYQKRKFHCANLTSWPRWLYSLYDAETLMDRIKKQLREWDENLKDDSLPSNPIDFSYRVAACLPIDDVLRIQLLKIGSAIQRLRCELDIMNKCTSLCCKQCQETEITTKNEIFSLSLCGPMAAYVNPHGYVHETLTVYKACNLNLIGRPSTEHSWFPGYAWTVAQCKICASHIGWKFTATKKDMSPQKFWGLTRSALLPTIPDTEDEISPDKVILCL

[3] = target: T1, Histone-lysine N-methyltransferase NSD2; experiment: Inhibition of MMSET (953 to 1240 residues) (unknown origin) by Alpha Screen assay
[4] = Oral bioavailability in CD-1 mouse by LC-MS/MS analysis; type: ADME, organism-based; conditions: in vivo
[5] = Oral bioavailability in Sprague-Dawley rat by LC-MS/MS analysis; type: ADME, organism-based; conditions: in vivo
MV4-11 = experiment: Growth inhibition of human MV4-11 cells after 7 days by WST-8 assay; type: functional; conditions: MV4-11, 168 h, time 7 day
KOPN-8 = experiment: Growth inhibition of human KOPN-8 cells; type: functional
MOLM-13 = experiment: Growth inhibition of human MOLM-13 cells; type: functional
[6] = Antiproliferative activity against […] assessed as reduction in cell growth incubated for 48 hrs by MTT assay; type: functional, cell-based; conditions: RN 22, 48 h
[7] = target: T1, Histone-lysine N-methyltransferase NSD2; experiment: Inhibition of NSD2 SET domain (unknown origin) extracted from Escherichia coli BL21
EOL1 = experiment: Antiproliferative activity against human EOL1 cells assessed as cell growth inhibition; type: functional, cell-based
[8] = target: von Hippel-Lindau disease tumor suppressor/Histone-lysine N-methyltransferase NSD3 (Homo sapiens, UniProt Q9BZ95+P40337); experiment: PROTAC activity at VHL/NSD3 […] domain in human MOLM-13 cells assessed as […] measured after 48 hrs by immunoblotting analysis; type: cell-based
Chain of von Hippel-Lindau disease tumor suppressor/Histone-lysine N-methyltransferase NSD3 (Q9BZ95 whole entry): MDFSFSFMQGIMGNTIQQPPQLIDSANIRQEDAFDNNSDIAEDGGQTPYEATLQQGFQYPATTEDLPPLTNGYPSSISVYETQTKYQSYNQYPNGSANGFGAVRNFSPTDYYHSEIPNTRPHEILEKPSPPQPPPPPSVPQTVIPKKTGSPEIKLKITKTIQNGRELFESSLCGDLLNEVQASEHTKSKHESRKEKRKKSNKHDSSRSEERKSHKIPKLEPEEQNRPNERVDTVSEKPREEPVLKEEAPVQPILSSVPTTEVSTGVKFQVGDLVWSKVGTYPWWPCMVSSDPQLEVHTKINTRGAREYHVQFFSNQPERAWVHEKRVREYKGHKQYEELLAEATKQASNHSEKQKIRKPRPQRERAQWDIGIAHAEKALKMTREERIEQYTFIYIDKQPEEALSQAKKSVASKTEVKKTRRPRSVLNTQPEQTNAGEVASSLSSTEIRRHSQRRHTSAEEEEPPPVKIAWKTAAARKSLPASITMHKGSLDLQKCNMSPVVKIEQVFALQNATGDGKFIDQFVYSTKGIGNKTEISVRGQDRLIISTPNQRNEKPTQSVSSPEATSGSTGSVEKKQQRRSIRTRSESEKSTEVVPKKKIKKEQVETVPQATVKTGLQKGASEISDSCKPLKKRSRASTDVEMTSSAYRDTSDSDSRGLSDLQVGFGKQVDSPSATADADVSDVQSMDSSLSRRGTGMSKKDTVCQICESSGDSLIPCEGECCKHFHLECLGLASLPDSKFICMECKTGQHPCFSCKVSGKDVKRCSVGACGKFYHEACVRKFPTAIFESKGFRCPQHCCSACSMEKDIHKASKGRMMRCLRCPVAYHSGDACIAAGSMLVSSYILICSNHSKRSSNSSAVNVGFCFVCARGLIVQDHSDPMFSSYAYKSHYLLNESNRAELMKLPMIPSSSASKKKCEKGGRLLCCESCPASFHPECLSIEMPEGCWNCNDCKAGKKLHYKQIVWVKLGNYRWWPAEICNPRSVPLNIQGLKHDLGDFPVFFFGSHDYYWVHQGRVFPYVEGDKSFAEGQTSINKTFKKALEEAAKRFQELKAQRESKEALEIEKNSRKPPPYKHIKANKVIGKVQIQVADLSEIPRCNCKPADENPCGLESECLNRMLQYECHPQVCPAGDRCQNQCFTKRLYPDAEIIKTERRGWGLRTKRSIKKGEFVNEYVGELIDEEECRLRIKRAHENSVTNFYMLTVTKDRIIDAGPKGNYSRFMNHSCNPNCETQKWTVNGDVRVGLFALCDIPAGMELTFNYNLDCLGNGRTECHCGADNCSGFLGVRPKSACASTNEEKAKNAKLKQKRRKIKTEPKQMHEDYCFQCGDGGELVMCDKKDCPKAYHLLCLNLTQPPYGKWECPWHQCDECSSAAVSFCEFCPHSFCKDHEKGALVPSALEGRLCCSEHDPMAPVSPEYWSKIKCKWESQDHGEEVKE
Chain of von Hippel-Lindau disease tumor suppressor/Histone-lysine N-methyltransferase NSD3 (P40337 whole entry): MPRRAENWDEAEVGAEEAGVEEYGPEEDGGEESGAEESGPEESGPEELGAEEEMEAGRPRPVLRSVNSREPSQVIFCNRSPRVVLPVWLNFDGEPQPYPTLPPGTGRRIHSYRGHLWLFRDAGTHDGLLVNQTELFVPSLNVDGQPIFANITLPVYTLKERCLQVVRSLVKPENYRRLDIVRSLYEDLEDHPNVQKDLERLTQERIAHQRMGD

NCCCCCCNC(=O)c1ccc(NC(=O)c2ccc(CN(C(=O)c3ccc4c(c3)OCC(=O)N4)C3CC3)cc2)cc1
Kd [1]: 24 nM
DC50 [2]: 350 nM

Cc1cccc2cc(C(=O)Nc3ccccc3)[nH]c12
IC50 [3]: 4240 nM

O=C(CNc1cccc2c1C(=O)N(C1CCC(=O)NC1=O)C2=O)NCCCOc1ccc(NC(=O)c2ccc(CN(C(=O)c3ccc4c(c3)OCC(=O)N4)C3CC3)cc2)nc1 (centres undefined)
DC50 [2]: 5200 nM

CC(=O)N1CCN([C@H]2CCC[C@@H](NC(=O)c3cc4c(F)ccc(C)c4[nH]3)C2)CC1 [EZM-0414]
IC50 [3]: 18 nM
bioavailability [4]: > 100%
bioavailability [5]: 97%

NC(=S)c1cccc(-c2cn(C3CCN(S(=O)(=O)C(F)(F)F)CC3)c3cc(CNC(=O)C4CNC4)ccc23)c1
GI50 (MV4-11): 5000 nM
GI50 (KOPN-8): 5000 nM
GI50 (MOLM-13): 5000 nM

Cc1cc(CN)cc(C)c1-c1ncn(C)c1-c1ccnc2cc(F)ccc12
IC50 [6]: 13000 nM

Cc1cccc2cc(C(=O)NC3CCC(N)CC3)[nH]c12 (centres undefined)
IC50 [3]: 166000 nM

O=C1O[C@@H](C(=O)N2CCN(Cc3nc4sc5c(c4c(=O)[nH]3)CCCC5)CC2)Cc2ccccc21
IC50 [7]: 132 nM

Cc1cccnc1C(NC(=O)c1cc2c(F)ccc(C)c2[nH]1)C1CC1 (centres undefined)
IC50 [3]: 600 nM

Cc1cc(CNCCCC(=O)NCCCCCCCCC(=O)N[C@H](C(=O)N2C[C@H](O)C[C@H]2C(=O)N[C@@H](C)c2ccc(-c3scnc3C)cc2)C(C)(C)C)cc(C)c1-c1ncn(C)c1-c1ccnc2cc(F)ccc12
IC50 (EOL1): 2300 nM
DC50 [8]: 4900 nM

CC(=O)N(C)C1CCN(c2cc(F)cc(NC(=O)c3cc4c(F)ccc(C)c4[nH]3)c2)C1 (centres undefined)
IC50 [3]: 7 nM

CN1CC(C(=O)NCc2ccc3c(-c4cccc(C(N)=S)c4)cn(C4CCN(S(=O)(=O)C(F)(F)F)CC4)c3c2)C1
GI50 (MV4-11): 1800 nM
GI50 (KOPN-8): 1800 nM
GI50 (MOLM-13): 1800 nM

CCC(C)N[C@@H](CC[C@H](N)C(=O)O)C[C@H]1O[C@@H](n2cnc3c(N)ncnc32)[C@H](O)[C@@H]1O (some centres undefined)
IC50 [3]: 1800 nM

Cc1cccnc1C(NC(=O)c1cc2cccc(C)c2[nH]1)C1CC1 (centres undefined)
IC50 [3]: 3080 nM

Cc1ccc(F)c2cc(C(=O)Nc3cccc(N4CCC(N(C)C)CC4)c3)[nH]c12
IC50 [3]: 10 nM
